In patent US20050267156A1, “Broadspectrum 2-amino-benzothiazole sulfonamide hiv protease inhibitors” (Tibotec Pharmaceuticals Ltd., priority 2002, published 2005):
Where a name gives a salt, the structure may show the parent alone. Read-outs that look alike come from different tables or passages of the source.

What was measured:
HIV-1 strain LAI = assay: Cellular anti-HIV assay (MT4/MTT), wild type; type: cell-based; conditions: MT4 cells, read-out: WT (pEC50) (converted)
Protocol: The compounds of the present invention were examined for anti-viral activity in a cellular assay. […] The cellular assay was performed according to the following procedure. HIV- or mock-infected MT4 cells were incubated for five days in the presence of various concentrations of the inhibitor. […] Cell viability is measured by measuring the concentration of MTT, a yellow, water soluble tetrazolium dye that is converted to a purple, water insoluble formazan in the mitochondria of living cells only. Upon solubilization of the resulting formazan crystals with isopropanol, the absorbance of the solution is monitored at 540 nm. The values correlate directly to the number of living cells remaining in the culture at the completion of the five-day incubation. The inhibitory activity of the compound was monitored on the virus-infected cells and was expressed as EC50 and EC90. These values represent the amount of the compound required to protect 50% and 90%, respectively, of the cells from the cytopathogenic effect of the virus. […] The selectivity index (SI) (ratio CC50/EC50) is an indication of the selectivity of the anti-HIV activity of the inhibitor. Wherever results are reported as e.g. pEC50 or pCC50 values, the result is expressed as the negative logarithm of the result expressed as EC50 or CC50 respectively.

mutant HIV strain A = assay: microbe, parasite or virus in culture; type: cell-based; conditions: for fold resistance Strain A: FR=EC50 (mutant strain)/EC50 (HIV-1 strain LAI); for EC50: Human immunodeficiency virus 1, MT4, read-out: pEC50 Strain A, mutant HIV strain A, MT4 cells (converted)
Protocol: (§1) HIV- or mock-infected MT4 cells were incubated for five days in the presence of various concentrations of the inhibitor. […] Cell viability is measured by measuring the concentration of MTT, a yellow, water soluble tetrazolium dye that is converted to a purple, water insoluble formazan in the mitochondria of living cells only. Upon solubilization of the resulting formazan crystals with isopropanol, the absorbance of the solution is monitored at 540 nm. The values correlate directly to the number of living cells remaining in the culture at the completion of the five-day incubation. The inhibitory activity of the compound was monitored on the virus-infected cells and was expressed as EC50 and EC90. These values represent the amount of the compound required to protect 50% and 90%, respectively, of the cells from the cytopathogenic effect of the virus. […] The selectivity index (SI) (ratio CC50/EC50) is an indication of the selectivity of the anti-HIV activity of the inhibitor. Wherever results are reported as e.g. pEC50 or pCC50 values, the result is expressed as the negative logarithm of the result expressed as EC50 or CC50 respectively.

mutant HIV strain B = assay: microbe, parasite or virus in culture; type: cell-based; conditions: for fold resistance Strain B: FR=EC50 (mutant strain)/EC50 (HIV-1 strain LAI); for EC50: Human immunodeficiency virus 1, MT4, read-out: pEC50 Strain B, mutant HIV strain B, MT4 cells (converted)
Protocol: as §1

mutant HIV strain C = assay: microbe, parasite or virus in culture; type: cell-based; conditions: for fold resistance Strain C: FR=EC50 (mutant strain)/EC50 (HIV-1 strain LAI); for EC50: Human immunodeficiency virus 1, MT4, read-out: pEC50 Strain C, mutant HIV strain C, MT4 cells (converted)
Protocol: as §1

mutant HIV strain D = assay: microbe, parasite or virus in culture; type: cell-based; conditions: for fold resistance Strain D: FR=EC50 (mutant strain)/EC50 (HIV-1 strain LAI); for EC50: Human immunodeficiency virus 1, MT4, read-out: pEC50 Strain D, mutant HIV strain D, MT4 cells (converted)
Protocol: as §1

mutant HIV strain E = assay: microbe, parasite or virus in culture; type: cell-based; conditions: for fold resistance Strain E: FR=EC50 (mutant strain)/EC50 (HIV-1 strain LAI); for EC50: Human immunodeficiency virus 1, MT4, read-out: pEC50 Strain E, mutant HIV strain E, MT4 cells (converted)
Protocol: as §1

mutant HIV strain F = assay: microbe, parasite or virus in culture; type: cell-based; conditions: for fold resistance Strain F: FR=EC50 (mutant strain)/EC50 (HIV-1 strain LAI); for EC50: Human immunodeficiency virus 1, MT4, read-out: pEC50 Strain F, mutant HIV strain F, MT4 cells (converted)
Protocol: as §1

Pharmacokinetics in rats = type: in vivo, Whistar rats; conditions: Whistar, rat, blood, 10 mpk, read-out: Cmax
Protocol: The pharmacokinetic properties of some compounds of formula (I) were tested on rats and dogs. The compounds were evaluated in Whistar rats, source Iffa Credo, weighing approximately 350 g. Before dosing the animals were fasted overnight (approximately 12 h fasting period). The compounds were dissolved in DMSO or PEG 400. The results represented in the table concern the results from the oral or intra-peritoneal dosing of the compounds. Blood was sampled at 30 min, 1 h, 2 h, 3 h, no pre-dose sample was taken. The amount of the compound in the biological sample was determined using LC-MS. In the table below “or” means oral dosing, “ip” means intraperitoneal dosing, “mpk” means mg per kilogram.

[1] = Toxicity on mock-infected cells (MTT); type: cell-based; conditions: human
Protocol: HIV- or mock-infected MT4 cells were incubated for five days in the presence of various concentrations of the inhibitor. At the end of the incubation period, the replicating virus in the control cultures has killed all HIV-infected cells in the absence of any inhibitor. Cell viability is measured by measuring the concentration of MTT, a yellow, water soluble tetrazolium dye that is converted to a purple, water insoluble formazan in the mitochondria of living cells only. Upon solubilization of the resulting formazan crystals with isopropanol, the absorbance of the solution is monitored at 540 nm. The values correlate directly to the number of living cells remaining in the culture at the completion of the five-day incubation. The inhibitory activity of the compound was monitored on the virus-infected cells and was expressed as EC50 and EC90. These values represent the amount of the compound required to protect 50% and 90%, respectively, of the cells from the cytopathogenic effect of the virus. […] The selectivity index (SI) (ratio CC50/EC50) is an indication of the selectivity of the anti-HIV activity of the inhibitor. Wherever results are reported as e.g. pEC50 or pCC50 values, the result is expressed as the negative logarithm of the result expressed as EC50 or CC50 respectively.

[2] = Human immunodeficiency virus 1, wild type HIV-1 strain LAI
[3] = ip, ip, DMSO, results normalized to 10 mpk
[4] = po, or, PEG400, results normalized to 10 mpk

| Structure (SMILES) | EC50 (HIV-1 strain LAI; [2]) | fold resistance Strain A (mutant HIV strain A) | EC50 (mutant HIV strain A) | fold resistance Strain B (mutant HIV strain B) | EC50 (mutant HIV strain B) | fold resistance Strain C (mutant HIV strain C) | EC50 (mutant HIV strain C) | fold resistance Strain D (mutant HIV strain D) | EC50 (mutant HIV strain D) | fold resistance Strain E (mutant HIV strain E) | EC50 (mutant HIV strain E) | fold resistance Strain F (mutant HIV strain F) | EC50 (mutant HIV strain F) | Cmax (Pharmacokinetics in rats; [3]) | Cmax (Pharmacokinetics in rats; po, or, DMSO, results normalized to 10 mpk) | Cmax (Pharmacokinetics in rats; [4]) | CC50 at 5 days [1] | EC50 (HIV-1 strain LAI; Human immunodeficiency virus 1, MT4, wild type HIV-1 strain LAI) |
| --- | --- | --- | --- | --- | --- | --- | --- | --- | --- | --- | --- | --- | --- | --- | --- | --- | --- | --- |
| CNc1nc2ccc(S(=O)(=O)N(CC(C)C)C[C@@H](O)[C@H](Cc3ccccc3)NC(=O)OCc3cnco3)cc2s1 [Compound 28, {(1S,2R)-1-benzyl-2-hydroxy-3-[isobutyl-(2-methylamino-benzothiazole-6-sulfonyl)-amino]-propyl}-carbamic acid oxazol-5-ylmethyl ester] | 0.00251 µM | 7.8 | 0.0195 µM | 2.2 | 0.00562 µM | 2.5 | 0.00617 µM | 14.8 | 0.0372 µM | 2.8 | 0.00708 µM | 30.9 | 0.0776 µM | 1 µg/mL | 0.54 µg/mL | 0.43 µg/mL |  |  |
| CNc1nc2ccc(S(=O)(=O)N(CC(C)C)C[C@@H](O)[C@H](Cc3ccccc3)NC(=O)COc3c(C)cccc3C)cc2s1 [Compound 15, N-{(1S,2R)-1-benzyl-2-hydroxy-3-[isobutyl-(2-methylamino-benzothiazole-6-sulfonyl)-amino]-propyl}-2-(2,6-dimethyl-phenoxy)-acetamide] | 0.0112 µM | 4.6 | 0.0513 µM | 2.6 | 0.0288 µM | 3.5 | 0.0398 µM | 4.5 | 0.0501 µM | 3.2 | 0.0363 µM | 20.4 | 0.229 µM | 0.086 µg/mL |  | 0.01 µg/mL | 91.2 µM |  |
| Cc1c(N)cccc1C(=O)N[C@@H](Cc1ccccc1)[C@H](O)CN(CC(C)C)S(=O)(=O)c1ccc2nc(N)sc2c1 [Compound 10, 3-amino-N-{(1S,2R)-3-[(2-amino-benzothiazole-6-sulfonyl)-isobutyl-amino]-1-benzyl-2-hydroxypropyl}-2-methyl-benzamide] | 0.00912 µM | 9.3 | 0.0851 µM | 1.0 | 0.00933 µM | 1.7 | 0.0158 µM | 2.5 | 0.0229 µM | 1.4 | 0.0132 µM | 9.5 | 0.0871 µM |  |  |  | 72.4 µM |  |
| CNc1nc2ccc(S(=O)(=O)N(CC(C)C)C[C@@H](O)[C@H](Cc3ccccc3)NC(=O)c3cccc(N)c3C)cc2s1 [Compound 20, 3-amino-N-{(1S,2R)-1-benzyl-2-hydroxy-3-[isobutyl-(2-methylamino-benzothiazole-6-sulfonyl)-amino]-propyl}-2-methyl-benzamide trifluoroacetate] |  |  | 0.316 µM |  | 0.0245 µM |  | 0.0398 µM |  | 0.0417 µM |  | 0.0257 µM |  | 0.759 µM |  |  |  | > 100 µM | 0.00479 µM |
| CNc1nc2ccc(S(=O)(=O)N(CC(C)C)C[C@@H](O)[C@H](Cc3ccccc3)NC(=O)c3ccc(Br)cc3C)cc2s1 [Compound 27, N-{(1S,2R)-1-benzyl-2-hydroxy-3-[isobutyl-(2-methylamino-benzothiazole-6-sulfonyl)-amino]-propyl}-4-bromo-2-methyl-benzamide] | 0.0191 µM | 8.3 | 0.158 µM | 1.1 | 0.0204 µM | 263.0 | 5.01 µM | 4.5 | 0.0851 µM | 1.6 | 0.0309 µM | 33.9 | 0.646 µM |  |  |  | > 100 µM |  |
| Cc1cc(CN)cc(C)c1OCC(=O)N[C@@H](Cc1ccccc1)[C@H](O)CN(CC(C)C)S(=O)(=O)c1ccc2nc(N)sc2c1 [Compound 17, N-{(1S,2R)-3-[(2-amino-benzothiazole-6-sulfonyl)-isobutyl-amino]-1-benzyl-2-hydroxypropyl}-2-(4-aminomethyl-2,6-dimethyl-phenoxy)-acetamide] | 0.00708 µM | 4.5 | 0.0316 µM | 0.9 | 0.00661 µM | 1.7 | 0.0123 µM | 3.3 | 0.0234 µM | 1.1 | 0.00759 µM | 22.4 | 0.158 µM |  |  |  | 63.1 µM |  |
| CC(C)CN(C[C@@H](O)[C@H](Cc1ccccc1)NC(=O)OCc1ccccc1)S(=O)(=O)c1ccc2nc(N)sc2c1 [Compound 7, {(1S,2R)-3-[(2-amino-benzothiazole-6-sulfonyl)-isobutyl-amino]-1-benzyl-2-hydroxypropyl}-carbamic acid benzyl ester] | 0.00589 µM | 72.4 | 0.427 µM | 5.0 | 0.0295 µM | 5.5 | 0.0324 µM | 20.0 | 0.117 µM | 7.4 | 0.0437 µM | 131.8 | 0.776 µM |  |  |  | 46.8 µM |  |
| Cc1c(O)cccc1C(=O)N[C@@H](Cc1ccccc1)[C@H](O)CN(CC(C)C)S(=O)(=O)c1ccc2nc(N)sc2c1 [Compound 11, N-{(1S,2R)-3-[(2-amino-benzothiazole-6-sulfonyl)-isobutyl-amino]-1-benzyl-2-hydroxypropyl}-3-hydroxy-2-methyl-benzamide] | 0.0145 µM | 7.8 | 0.112 µM | 0.5 | 0.00724 µM | 0.5 | 0.00759 µM | 0.6 | 0.00832 µM | 0.5 | 0.00724 µM | 7.1 | 0.102 µM |  |  |  | 57.5 µM |  |
